Patent US20220339122A1, “METHODS FOR THE TREATMENT OF DISEASES ASSOCIATED WITH DYSREGULATED ACTIVATION AND RECRUITMENT OF NEUTROPHILS” (Chang Gung University, priority 2021, published 2022)

What was measured:
BALB/c mice = assay: LPS-induced mortality model in mice; type: in vivo; details: 25 mg/Kg bletinib; LPS 5 mg/Kg; monitored 5 days; log-rank p=0.0085
Method: For the LPS-induced mortality model, mice were intraperitoneally injected with a single 50-μL dose of LPS (from Escherichia coli O111:B4; 5 mg/kg) or 0.9% saline (vehicle alone group). The mice were monitored for 5 days to determine the survival rate.

human neutrophils [1] = assay: Total ROS production, luminol-amplified chemiluminescence; type: cell-based; details: 0.1-3 μM bletinib; 0.1 μM fMLF; dose-dependent
Method: Human neutrophils (2×10^6 cells/mL) were preincubated with 6 U mL^−1 horseradish peroxidase (HRP) and 37.5 μM luminol in a 96-well plate at 37° C. for 5 min. Cells were incubated with DMSO or bletinib for 5 min, followed by 0.1 μM fMLF stimulation. Chemiluminescence was then detected and analysed in real time on a 96-well chemiluminometer (Tecan Infinite F200 Pro; Mannedorf, Switzerland).

Hck (Y410) = assay: Immunoblotting of neutrophil lysates, Hck phosphorylation; type: cell-based, human; details: 0.1 μM fMLF-stimulated neutrophils
Method: (§1) Neutrophils incubated with bletinib or DMSO at 37° C. for 5 min were stimulated with 0.1 μM fMLF for 30 s. The proteins were separated from neutrophil lysates through electrophoresis (12% sodium dodecyl sulphate-polyacrylamide gel electrophoresis) and then transferred to nitrocellulose membranes. The target proteins were identified through immunoblotting with specific antibodies against p38, p-p38, Akt, p-Akt S473, ERK, p-ERK, INK, p-JNK, Src, p-SFKs Y416, p-Src Y416, Lyn, p-Lyn (Y396), Fgr, p-Fgr (Y412), Hck, p-Hck (Y410), Btk, p-Btk Y223, Vav, and p-Vav (Y174) as well as with HRP-conjugated secondary anti-rabbit antibody (Cell Signaling Technology). The signal intensity was detected and quantified using the UVP BioSpectrum Imaging System (Analytik Jena, USA).

Vav (Y174) = assay: Immunoblotting of neutrophil lysates, Vav phosphorylation; type: cell-based, human; details: 0.1 μM fMLF-stimulated neutrophils
Method: as §1

CD11b (integrin αM) = assay: Surface CD11b expression, flow cytometry; type: cell-based, human
Method: Neutrophils (5×10^5 cells/mL) were incubated with bletinib or DMSO for 5 min and then activated through incubation with 0.1 μM fMLF/1 μg/mL CB for 5 min. After centrifugation at 200×g for 8 min at 4° C., the cells were resuspended in 5% bovine serum albumin with FITC-conjugated antibodies against CD18 or CD11b on ice in the dark for 15 min. The fluorescent intensity was then analysed through fluorescence-activated cell sorting.

Fgr = Fgr (Homo sapiens, UniProt P09769); assay: Cell-free ADP-Glo kinase assay, Fgr; type: biochemical; details: 1-10 μM bletinib or 0.1-3 μM PP2; 125 μM ATP; concentration-dependent
Method: (§2) The kinase activity of SFKs was assessed using an ADP-Glo kinase assay kit (Promega, Fitchburg, USA) according to manufacturer instructions. […] The ADP-Glo reagent was used to end the kinase reaction and remove the remnant ATP; next, the kinase, which converted ADP to ATP, detection reagent was added and incubated for 30 min. Luciferin/luciferase luminescence was determined on an Infinite 200 Pro (Tecan, Switzerland).

human neutrophils [2] = assay: Intracellular superoxide/ROS production, DHR123 flow cytometry; type: cell-based; details: 0.1-3 μM bletinib; 0.1 μM fMLF; dose-dependent
Method: Human neutrophils (2.5×10^6 cells/mL) were labelled using 2 μM dihydrorhodamine 123 (DHR123) at 37° C. for 10 min and then incubated with DMSO or bletinib for 5 min and then stimulated with 0.1 μM fMLF/0.5 μg/mL CB for 15 min. The fluorescence intensity was detected through flow cytometry to evaluate intracellular superoxide anion production of human neutrophils.

Lyn (Y396) = assay: Immunoblotting of neutrophil lysates, Lyn phosphorylation; type: cell-based, human; details: 0.1 μM fMLF-stimulated neutrophils
Method: as §1

Src (Y416) = assay: Immunoblotting of neutrophil lysates, Src phosphorylation; type: cell-based, human; details: 0.1 μM fMLF-stimulated neutrophils
Method: as §1

Src = Src (Homo sapiens, UniProt P12931); assay: Cell-free ADP-Glo kinase assay, Src; type: biochemical; details: 1-10 μM bletinib or 0.1-3 μM PP2; 125 μM ATP; concentration-dependent
Method: as §2

human neutrophils [3] = assay: Neutrophil elastase (NE) release (degranulation); type: cell-based
Method: Human neutrophils (6×10^5 cells/mL) were incubated with DMSO or bletinib after treatment with 1 mM CaCl2 and 100 μM NE substrate (Methoxysuccinyl-Ala-Ala-Pro-Val-p-nitroanilide) at 37° C. for 5 min. Cells were stimulated with fMLF/0.5 μg mL^−1 CB, leukotriene B4 (LTB4)/2 μg mL^−1 CB, NaF/2 μg mL^−1 CB, or MMK-1/0.5 μg mL-1 CB for 10 min before determination of NE release by measuring the change of absorbance at 405 nm in a spectrophotometer.

p-SFKs Y416 = assay: Immunoblotting of neutrophil lysates, SFKs phosphorylation; type: cell-based, human; details: 10 μM bletinib; 0.1 μM fMLF
Method: as §1

human neutrophils [4] = assay: NET photography (immunofluorescence and scanning electron microscopy); type: cell-based; details: 10 nM PMA; 1-10 μM bletinib
Method: Neutrophils (3×10^5 cells/mL) were incubated with DMSO or bletinib for 10 min before being activated with 10 nM PMA for 2 h. Neutrophils were fixed with 4% paraformaldehyde and treated with 5% goat serum blocking buffer for 1 h and then treated with […] anti-MPO (Abcam) and 5 μg/mL anti-NE (Merck Millipore) antibodies for 1 h. These cells were then treated with the Alexa 488 or 568-labelled secondary goat anti-rabbit antibody for another 1 h. Thereafter, the cells were washed with PBS and treated with 1 ng/mL Hoechst 33342 and ProLong Gold antifade reagent (Invitrogen, CA, USA). Immunofluorescence microscopy and scanning electron microscopy were both used to observe the NET formation of activated neutrophils.

[5] = Superoxide scavenging capacity, WST-1 reduction; type: biochemical; details: WST-1 reduction at 450 nm
Method: FIG. 1 Bletinib suppressed superoxide anion production in stimulated human neutrophils. Neutrophils (6×10^5 cells/mL) were incubated with 0.1% DMSO or […] bletinib for 5 min before activation with stimuli. Superoxide anion production was induced by (A) fMLF, (B) MMK-1, (C) NaF, or (D) PMA and then measured using ferricytochrome c reduction method. (E) Cytotoxicity was assessed using LDH release. (F) Superoxide scavenging capacity of bletinib was assessed in a xanthine/xanthine oxidase cell-free system. WST-1 reduction was measured through spectrophotometry at 450 nm, with 20 U/mL superoxide dismutase as the positive control.

Src, sequence (P12931 whole entry): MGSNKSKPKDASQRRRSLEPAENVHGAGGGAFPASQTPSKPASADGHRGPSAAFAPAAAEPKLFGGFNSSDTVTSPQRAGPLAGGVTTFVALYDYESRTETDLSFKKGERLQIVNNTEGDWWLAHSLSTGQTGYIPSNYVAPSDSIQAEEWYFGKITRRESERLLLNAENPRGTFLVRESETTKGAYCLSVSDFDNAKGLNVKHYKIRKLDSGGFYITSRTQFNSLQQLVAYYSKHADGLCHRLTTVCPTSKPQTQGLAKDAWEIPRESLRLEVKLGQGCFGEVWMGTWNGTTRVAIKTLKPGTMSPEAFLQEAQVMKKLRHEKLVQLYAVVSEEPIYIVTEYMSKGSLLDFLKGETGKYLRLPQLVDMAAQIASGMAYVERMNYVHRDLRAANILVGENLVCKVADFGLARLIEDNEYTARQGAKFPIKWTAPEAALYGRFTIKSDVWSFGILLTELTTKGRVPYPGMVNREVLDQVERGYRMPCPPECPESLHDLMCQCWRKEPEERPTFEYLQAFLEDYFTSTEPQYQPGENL
Fgr, sequence (P09769 whole entry): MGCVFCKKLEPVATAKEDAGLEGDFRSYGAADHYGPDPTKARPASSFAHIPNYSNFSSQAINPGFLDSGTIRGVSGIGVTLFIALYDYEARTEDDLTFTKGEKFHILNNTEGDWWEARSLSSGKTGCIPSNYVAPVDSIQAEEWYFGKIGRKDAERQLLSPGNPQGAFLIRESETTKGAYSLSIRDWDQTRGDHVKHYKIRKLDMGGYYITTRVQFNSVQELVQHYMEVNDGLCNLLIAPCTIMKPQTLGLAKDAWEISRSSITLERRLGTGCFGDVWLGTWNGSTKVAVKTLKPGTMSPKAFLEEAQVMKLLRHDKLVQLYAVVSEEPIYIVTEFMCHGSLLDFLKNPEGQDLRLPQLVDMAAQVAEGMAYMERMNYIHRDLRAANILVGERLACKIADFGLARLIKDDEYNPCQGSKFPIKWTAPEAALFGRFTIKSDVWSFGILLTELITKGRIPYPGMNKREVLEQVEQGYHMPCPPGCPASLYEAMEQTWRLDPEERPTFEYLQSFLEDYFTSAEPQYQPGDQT

COc1cc(O)cc(CCc2c(Cc3ccc(O)cc3)ccc(O)c2Cc2ccc(O)cc2)c1 [bletinib, 3,3′-dihydroxy-2′,6′-bis(p-hydroxybenzyl)-5-methoxybibenzyl]
survival time of LPS-primed mice (BALB/c mice): significantly prolonged
ROS production, luminol-amplified chemiluminescence (human neutrophils [1]): significantly suppressed
phosphorylation of Hck (Y410) (Hck (Y410)): significantly inhibited
phosphorylation of Vav (Y174) (Vav (Y174)): significantly inhibited
expression of CD11b in fMLF-stimulated human neutrophils (CD11b (integrin αM); 1-10 μM bletinib, 0.1 μM fMLF/CB): significantly attenuated
IL-8-induced CD11b expression (CD11b (integrin αM); IL-8, data not shown): restrained
kinase activity of Fgr (Fgr): inhibited
intracellular ROS production, flow cytometry (DHR123 MFI) (human neutrophils [2]): significantly suppressed
phosphorylation of Lyn (Y396) (Lyn (Y396)): significantly inhibited
phosphorylation of Src (Y416) (Src (Y416)): significantly inhibited
kinase activity of Src (Src): inhibited
IC50 (human neutrophils [3]; Homo sapiens, Neutrophil, fMLF/CB stimulation, read-out: release of NE in fMLF-stimulated human neutrophils, IC50): 530 ± 70 nM
NE release from neutrophils stimulated with LTB4 (human neutrophils [3]; LTB4/CB, 0.1-10 μM bletinib, concentration-dependent): downregulated
NE release from neutrophils stimulated with MMK-1 (human neutrophils [3]; MMK-1/CB, 0.1-10 μM bletinib, concentration-dependent): downregulated
NE release from neutrophils stimulated with NaF (human neutrophils [3]; NaF/CB, 0.1-10 μM bletinib, concentration-dependent): downregulated
phosphorylation of SFKs (p-SFKs Y416): significantly inhibited
NET formation, immunofluorescent staining and scanning electron microscopy images (human neutrophils [4]): effectively inhibited
ROS scavenging activity in the cell-free xanthine and xanthine oxidase system [5]: did not exhibit
